Drawing on PubChem BioAssay (NCI), this text covers GI50 and TGI for 17 compounds.

In general, GI50 refers to the concentration that inhibits growth by half. One may read the TGI as the concentration at which net growth stops.

SMILES strings stand for the structures.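 48-hour exposure; five concentrations; linearly interpolated endpoints. Abbreviation: GI50, concentration required for 50% inhibition of growth. TGI marks complete inhibition of growth.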

The first test concerns SF-539 CNS. Briefly: DTP human tumour cell line panel, 48 h.
Consider `COc1ccc(-c2oc3cc(O)c(OC)c(O)c3c(=O)c2OC)cc1O`, for which the GI50 was 0.0445 µM and the TGI is 21.9 µM.

`Cc1c(C2=C(Br)C(=O)N(C)C2=O)c(=O)n(C)c(=O)n1C` came in with a TGI of 34.6 µM.

`N#CC(=NCCO)C1=C(O)c2ccccc2C1=O`: the TGI is above 100 µM.

For `NC(CS/C(Cl)=C/Cl)C(=O)O` (stereo not given), the GI50 is above 100 µM and the TGI is above 100 µM.

As to `Cc1ccc(C2(O)CC(c3ccc([N+](=O)[O-])o3)=NN2C(=O)COc2ccc(Cl)cc2)cc1` (stereo not given), the TGI was determined as 15.4 µM.

On to `Cc1cc(N/N=C/c2nc(-c3ccc(Br)cc3)oc2C)c2cc(Br)ccc2n1`, for which the GI50 is 1.76 µM and the TGI worked out at 3.5 µM.

Turning to `COc1ccc2c(O)cc3c(c2c1)[C@H](CCl)CN3C(=O)c1cc2cc(NC(=O)CCN3CCOCC3)ccc2[se]1`, the GI50 was below 0.001 µM and the TGI turned out to be 0.00264 µM.

`COc1cc2c(cc1O)C1Cc3ccc(OC)c(O)c3C(C2)N1C` (stereo not given): the total growth inhibition concentration (TGI) was above 100 µM.

For another test, the system named is SK-MEL-2 melanoma. Description: DTP human tumour cell line panel, 48 h.
With `Nc1nc(SN=Nc2ccc(S(N)(=O)=O)cc2)c2[nH]cnc2n1`, the GI50 is 1.24 µM and the TGI is above 100 µM.

With `CN(CCCNC(=O)Cc1ccc2ccc3cccc4ccc1c2c34)CCCNc1cc(-c2ccc3ccccc3c2)nc2ccccc12`, the GI50 was 1.82 µM and the TGI worked out at 3.55 µM.

For `COCCOc1cnc2ccn([C@H](C)c3nnc4c(F)cc(-c5cnn(C)c5)cn34)c(=O)c2c1`, the GI50 is above 100 µM and the TGI was above 100 µM.

Turning to `CC(C)CNC(=O)O`, the TGI was above 100 µM.

Regarding `C[C@]12CC[C@@H]3c4ccc(O)cc4CC[C@H]3[C@@H]1CC[C@@H]2NS(=O)(=O)c1cccc(F)c1`, the GI50 is 2.8 µM and the TGI was found to be 8.14 µM.

Turning to `CCC(C)(C)c1ccc(OCCCCCCN2CCNCC2)cc1`, the GI50 was 2.19 µM and the TGI is 4.74 µM.

As to `Cc1cc(S(=O)(=O)N/N=C(\Sc2cc(Cl)c(C)cc2S(N)(=O)=O)c2ccc(Cl)cc2)c(Cl)cc1Cl`, the GI50 is above 100 µM and the TGI is above 100 µM.

Turning to `C1C[OH+]CCNCC[OH+]CC[OH+]CCN1.[Cl-].[Pt+4]`, the GI50 is above 100 µM and the TGI is above 100 µM.

Consider `COc1ccc(C(=O)COc2cccc(/C=C3\Oc4ccc5ccccc5c4C3=O)c2)cc1`, for which the GI50 was 3.76 µM and the TGI was 16.6 µM.

On to `COc1ccc(-c2oc3cc(O)c(OC)c(O)c3c(=O)c2OC)cc1O`, for which the GI50 is 0.536 µM and the TGI was above 100 µM.

Compound `Cc1c(C2=C(Br)C(=O)N(C)C2=O)c(=O)n(C)c(=O)n1C` yielded a TGI of 35.2 µM.

Consider `N#CC(=NCCO)C1=C(O)c2ccccc2C1=O`, for which the TGI was above 100 µM.

As to `NC(CS/C(Cl)=C/Cl)C(=O)O` (stereo not given), the GI50 is 22.2 µM and the TGI was above 100 µM.

For the compound `Cc1ccc(C2(O)CC(c3ccc([N+](=O)[O-])o3)=NN2C(=O)COc2ccc(Cl)cc2)cc1` (stereo not given), the TGI is 16.1 µM. This counts as double-digit micromolar.

Consider `Cc1cc(N/N=C/c2nc(-c3ccc(Br)cc3)oc2C)c2cc(Br)ccc2n1`, for which the GI50 was 25.6 µM and the total growth inhibition concentration (TGI) is 68.1 µM.

With `COc1ccc2c(O)cc3c(c2c1)[C@H](CCl)CN3C(=O)c1cc2cc(NC(=O)CCN3CCOCC3)ccc2[se]1`, the 50% growth inhibitory concentration (GI50) was below 0.001 µM and the TGI was below 0.001 µM.

The compound `COc1cc2c(cc1O)C1Cc3ccc(OC)c(O)c3C(C2)N1C` (stereo not given) yielded a TGI above 100 µM.

The test system of another test is UACC-257 melanoma. Briefly: DTP human tumour cell line panel, 48 h.
`Nc1nc(SN=Nc2ccc(S(N)(=O)=O)cc2)c2[nH]cnc2n1`: the GI50 is 1.62 µM and the TGI was above 100 µM.

For the compound `CN(CCCNC(=O)Cc1ccc2ccc3cccc4ccc1c2c34)CCCNc1cc(-c2ccc3ccccc3c2)nc2ccccc12`, the GI50 was 1.8 µM and the TGI turned out to be 3.56 µM.

In the case of `COCCOc1cnc2ccn([C@H](C)c3nnc4c(F)cc(-c5cnn(C)c5)cn34)c(=O)c2c1`, the GI50 was above 100 µM and the TGI is above 100 µM.

Compound `CC(C)CNC(=O)O` had a total growth inhibition concentration (TGI) above 100 µM.

Take `C[C@]12CC[C@@H]3c4ccc(O)cc4CC[C@H]3[C@@H]1CC[C@@H]2NS(=O)(=O)c1cccc(F)c1`: the GI50 is 4.07 µM and the TGI worked out at 16.3 µM.

Regarding `CCC(C)(C)c1ccc(OCCCCCCN2CCNCC2)cc1`, the GI50 is 2.11 µM and the TGI was determined as 4.43 µM.

For the compound `Cc1cc(S(=O)(=O)N/N=C(\Sc2cc(Cl)c(C)cc2S(N)(=O)=O)c2ccc(Cl)cc2)c(Cl)cc1Cl`, the GI50 was 44.5 µM and the TGI was above 100 µM.

Consider `C1C[OH+]CCNCC[OH+]CC[OH+]CCN1.[Cl-].[Pt+4]`, for which the GI50 was above 100 µM and the TGI is above 100 µM.

As for `COc1ccc(C(=O)COc2cccc(/C=C3\Oc4ccc5ccccc5c4C3=O)c2)cc1`, the GI50 was 14.5 µM and the TGI stood at 32.4 µM.

As for `COc1ccc(-c2oc3cc(O)c(OC)c(O)c3c(=O)c2OC)cc1O`, the GI50 was above 100 µM and the TGI is above 100 µM.

`Cc1c(C2=C(Br)C(=O)N(C)C2=O)c(=O)n(C)c(=O)n1C` had a TGI of 32 µM.

As for `N#CC(=NCCO)C1=C(O)c2ccccc2C1=O`, the TGI is above 100 µM.

On to `NC(CS/C(Cl)=C/Cl)C(=O)O` (stereo not given), for which the GI50 is 23.3 µM and the TGI worked out at 78.8 µM.

For `Cc1ccc(C2(O)CC(c3ccc([N+](=O)[O-])o3)=NN2C(=O)COc2ccc(Cl)cc2)cc1` (stereo not given), the TGI was 17 µM.

As for `Cc1cc(N/N=C/c2nc(-c3ccc(Br)cc3)oc2C)c2cc(Br)ccc2n1`, the GI50 was 6.9 µM and the TGI is 21.9 µM.

Consider `COc1ccc2c(O)cc3c(c2c1)[C@H](CCl)CN3C(=O)c1cc2cc(NC(=O)CCN3CCOCC3)ccc2[se]1`, for which the GI50 was below 0.001 µM and the TGI is 0.00319 µM.

Take `COc1cc2c(cc1O)C1Cc3ccc(OC)c(O)c3C(C2)N1C` (stereo not given): the TGI is above 100 µM.
